Measured values as given in US20240398757A1 (COCRYSTAL PHARMA, INC., priority 2022, published 2024).

Each molecule was assayed against T1, SARS2 protease (Severe acute respiratory syndrome coronavirus 2, UniProt P0DTD1) (assay: SARS-CoV-2 protease inhibition assay (SARS2 FRET protease assay)). Conditions: IC50 (μM), SARS2 protease 30 nM, peptide substrate 1.3 μM, 120 minutes at 37° C., compounds 20 μM to 0.075 nM.
T1 construct: SARS2 protease was added to a final concentration of 30 nM
Type: biochemical

**Q.** For `CC(C)(c1cccc(F)c1)C(OC(=O)N[C@@H](CC1CCCCC1)C(=O)N[C@@H](C[C@@H]1CCNC1=O)C(=O)C(=O)NC1CC1)c1ccccc1` (some centres unmarked) [Compound A47], which IC50 is on record?
**A.** 0.62 µM

**Q.** For `CCCC[C@H](NC(=O)O[C@H](c1ccccc1)C(C)(C)c1cccc(Cl)c1)C(=O)N[C@H](C=O)C[C@H]1CCNC1=O` [Compound A123], which IC50 is on record?
**A.** 5.3 µM

**Q.** For `CC(C)C[C@H](NC(=O)OC(c1ccccc1)C(F)(F)c1cccc(F)c1)C(=O)N[C@H](C=O)C[C@@H]1CCNC1=O` (some centres unmarked) [Compound A2], which IC50 is on record?
**A.** 0.004 µM

**Q.** `CCNC(=O)C(=O)[C@H](C[C@@H]1CCNC1=O)NC(=O)[C@H](CC1CCCCC1)NC(=O)OC(c1ccccc1)C(F)(F)c1cccc(Cl)c1` (some centres unmarked) [Compound A50] was tested. Which IC50 did it give?
**A.** 0.01 µM

**Q.** How did the IC50 turn out when `CC(C)C[C@H](NC(=O)O[C@@H](c1ccccc1)C(F)(F)c1cccc(F)c1)C(=O)N[C@H](C=O)C[C@@H]1CCNC1=O` [Compound A223, (S)-2,2-difluoro-2-(3-fluorophenyl)-1-phenylethyl ((S)-4-methyl-1-oxo-1-(((S)-1-oxo-3-((S)-2-oxopyrrolidin-3-yl)propan-2-yl)amino)pentan-2-yl)carbamate] was run?
**A.** 0.007 µM

**Q.** For `CCCC[C@H](NC(=O)O[C@@H](c1cccnc1)C(F)(F)c1cccc(Cl)c1)C(=O)N[C@H](C=O)C[C@@H]1CCNC1=O` [Compound A267, (S)-2-(3-chlorophenyl)-2,2-difluoro-1-(pyridin-3-yl)ethyl ((S)-1-oxo-1-(((S)-1-oxo-3-((S)-2-oxopyrrolidin-3-yl)propan-2-yl)amino)hexan-2-yl)carbamate], which IC50 is on record?
**A.** 0.009 µM

**Q.** Which IC50 does the source give for `CCNC(=O)C(=O)[C@H](C[C@@H]1CCNC1=O)NC(=O)[C@H](CC1CCCC1)NC(=O)OC(c1ccccc1)C(F)(F)c1cccc(Cl)c1` (stereo partly drawn) [Compound A117, 2-(3-chlorophenyl)-2,2-difluoro-1-phenylethyl ((S)-3-cyclopentyl-1-(((S)-4-(ethylamino)-3,4-dioxo-1-((S)-2-oxopyrrolidin-3-yl)butan-2-yl)amino)-1-oxopropan-2-yl)carbamate] here?
**A.** 0.0028 µM

**Q.** `CCCC[C@H](NC(=O)OC(c1ccc(F)cc1)C(F)(F)c1cccc(Cl)c1)C(=O)N[C@H](C=O)C[C@@H]1CCNC1=O` (some centres unmarked) [Compound A69] was tested. Which IC50 did it give?
**A.** 0.008 µM

**Q.** For `CCCC[C@H](NC(=O)O[C@@H](c1ccccc1)C(C)(C)c1cccc(F)c1)C(=O)N[C@@H](C[C@@H]1CCNC1=O)C(=O)C(=O)NCC` [Compound A215], which IC50 is on record?
**A.** 1.01 µM

**Q.** With `CCCCCOC(=O)N[C@@H](CC(C)C)C(=O)N[C@@H](C[C@@H]1CCNC1=O)C(=O)C(=O)NC1CC1` [Compound A12] as the molecule, how does the IC50 read?
**A.** 0.876 µM

**Q.** How did the IC50 turn out when `CCCC[C@H](NC(=O)O[C@H](c1ccccc1)C(C)(C)c1cccc(F)c1)C(=O)N[C@@H](C[C@@H]1CCNC1=O)C(=O)C(=O)NCC` [Compound A216] was run?
**A.** 0.006 µM

**Q.** `CCCC[C@H](NC(=O)OC(c1ccccc1)C(F)(F)c1cccc(Cl)c1)C(=O)N[C@H](C=O)C[C@@H]1CCCNC1=O` (some centres unmarked) [Compound A114] was tested. Which IC50 did it give?
**A.** 0.0003 µM

**Q.** For `CC(C)C[C@H](NC(=O)OC(c1ccccc1)C(C)(C)c1cccc(C(F)(F)F)c1)C(=O)N[C@@H](C[C@@H]1CCNC1=O)C(=O)C(=O)NC1CC1` (some centres unmarked) [Compound A197], which IC50 is on record?
**A.** 0.027 µM

**Q.** Which IC50 does the source give for `CCCC[C@H](NC(=O)O[C@@H](c1cccnc1)C(F)(F)c1cccc(Cl)c1)C(=O)N[C@@H](C[C@@H]1CCNC1=O)C(=O)C(=O)NC1CC1` [Compound A301] here?
**A.** 0.0362 µM

**Q.** How did the IC50 turn out when `CC(C)C[C@H](NC(=O)O[C@@H](c1ccccc1)C(C)(C)c1cccc(Cl)c1)C(=O)N[C@H](C=O)C[C@@H]1CCCNC1=O` [Compound A158] was run?
**A.** 0.002 µM

**Q.** With `CCCC[C@H](NC(=O)OC(c1cccc(F)c1)C1(c2cccc(Cl)c2)CC1)C(=O)N[C@H](C=O)C[C@@H]1CCNC1=O` (some centres unmarked) [Compound A96] as the molecule, how does the IC50 read?
**A.** 0.007 µM

**Q.** For `CCCC[C@H](NC(=O)O[C@@H](c1ccccc1)C(F)(F)c1cccc(Cl)c1)C(=O)N[C@@H](C[C@@H]1CCNC1=O)C(O)S(=O)(=O)O` (some centres unmarked) [Compound A121], which IC50 is on record?
**A.** 0.018 µM

**Q.** Which IC50 does the source give for `O=C(N[C@@H](CC1CCCCC1)C(=O)N[C@@H](C[C@@H]1CCNC1=O)C(=O)c1nc2ccccc2o1)OC(c1ccccc1)C(F)(F)c1cccc(Cl)c1` (stereo partly drawn) [Compound A278, 2-(3-chlorophenyl)-2,2-difluoro-1-phenylethyl ((S)-1-(((S)-1-(benzo[d]oxazol-2-yl)-1-oxo-3-((S)-2-oxopyrrolidin-3-yl)propan-2-yl)amino)-3-cyclohexyl-1-oxopropan-2-yl)carbamate] here?
**A.** 0.249 µM

**Q.** `O=C[C@H](C[C@@H]1CCNC1=O)NC(=O)[C@H](Cc1ccc(Cl)cc1)NC(=O)OC(c1ccccc1)C(F)(F)c1cccc(Cl)c1` (stereo partly drawn) [Compound A262, 2-(3-chlorophenyl)-2,2-difluoro-1-phenylethyl ((S)-3-(4-chlorophenyl)-1-oxo-1-(((S)-1-oxo-3-((S)-2-oxopyrrolidin-3-yl)propan-2-yl)amino)propan-2-yl)carbamate] was tested. Which IC50 did it give?
**A.** 0.203 µM

**Q.** How did the IC50 turn out when `CC(C)C[C@H](NC(=O)OC(c1cccc(Cl)c1)C1(c2cccc(Cl)c2)CCN(C(=O)OC(C)(C)C)CC1)C(=O)N[C@H](C=O)C[C@@H]1CCNC1=O` (some centres unmarked) [Compound A86] was run?
**A.** 0.37 µM

**Q.** `CCCC[C@H](NC(=O)O[C@H](c1ccccc1)C(C)(C)c1cccc(Cl)c1)C(=O)N[C@H](C=O)C[C@@H]1CCNC1=O` [Compound A62] was tested. Which IC50 did it give?
**A.** 0.148 µM

**Q.** `CCC(CC)(c1cccc(Cl)c1)C(OC(=O)N[C@@H](CC(C)C)C(=O)N[C@H](C=O)C[C@@H]1CCNC1=O)c1cccc(Cl)c1` (some centres unmarked) [Compound A66] was tested. Which IC50 did it give?
**A.** 0.259 µM

**Q.** `CCCC[C@H](NC(=O)O[C@H](c1ccccc1)C(F)(F)c1cccc(Cl)c1)C(=O)N[C@@H](C[C@@H]1CCNC1=O)C(OC(=O)CC)S(=O)(=O)O` (some centres unmarked) [Compound A214] was tested. Which IC50 did it give?
**A.** 1.86 µM

**Q.** With `CCCC[C@H](NC(=O)OC(c1ccccc1)C(F)(F)c1cccc(F)c1)C(=O)N[C@@H](CC1CCNC1=O)C(=O)C(=O)NCC` (stereo in doubt) [Compound A173, 2,2-difluoro-2-(3-fluorophenyl)-1-phenylethyl ((S)-1-(((S)-4-(ethylamino)-3,4-dioxo-1-((S)-2-oxopyrrolidin-3-yl)butan-2-yl)amino)-1-oxohexan-2-yl)carbamate] as the molecule, how does the IC50 read?
**A.** 0.0386 µM

**Q.** How did the IC50 turn out when `O=C[C@H](C[C@@H]1CCNC1=O)NC(=O)[C@H](CC1CC1)NC(=O)O[C@@H](c1ccccc1)C(F)(F)c1cccc(Cl)c1` [Compound A156] was run?
**A.** 0.289 µM

**Q.** How did the IC50 turn out when `CCCC[C@H](NC(=O)O[C@@H](c1ccccc1)C(F)(F)c1cccc(Cl)c1)C(=O)N[C@@H](C[C@@H]1CCNC1=O)C(OC(=O)CC)S(=O)(=O)O` (some centres unmarked) [Compound A213] was run?
**A.** 5.02 µM

**Q.** How did the IC50 turn out when `O=C(N[C@@H](CCCF)C(=O)N[C@@H](C[C@@H]1CCNC1=O)C(=O)C(=O)NC1CC1)OC(c1ccccc1)C(F)(F)c1cccc(Cl)c1` (some centres unmarked) [Compound A180] was run?
**A.** 0.095 µM

**Q.** `CCC[C@H](NC(=O)OC(c1ccccc1)C(F)(F)c1cccc(F)c1)C(=O)N[C@@H](C[C@@H]1CCNC1=O)C(=O)C(=O)NC1CC1` (some centres unmarked) [Compound A100] was tested. Which IC50 did it give?
**A.** 0.25 µM

**Q.** How did the IC50 turn out when `CCC[C@H](NC(=O)O[C@@H](c1ccc(F)cc1)C(F)(F)c1cccc(Cl)c1)C(=O)N[C@H](C=O)C[C@@H]1CCNC1=O` [Compound A148] was run?
**A.** 0.007 µM

**Q.** With `CCNC(=O)C(=O)[C@H](C[C@@H]1CCNC1=O)NC(=O)[C@H](CC1(C)CCC1)NC(=O)O[C@H](c1ccccc1)C(F)(F)c1cccc(Cl)c1` [Compound A326] as the molecule, how does the IC50 read?
**A.** 0.367 µM

**Q.** With `O=C[C@H](C[C@@H]1CCNC1=O)NC(=O)[C@H](CC1CCC1)NC(=O)O[C@H](c1ccccc1)C(F)(F)c1cccc(Cl)c1` [Compound A205] as the molecule, how does the IC50 read?
**A.** 0.0002 µM

**Q.** With `CCCC[C@H](NC(=O)OC(c1ccccc1)C(F)(F)c1cccc(F)c1)C(=O)N[C@@H](C[C@@H]1CCNC1=O)C(=O)C(=O)NC1CC1` (some centres unmarked) [Compound A87] as the molecule, how does the IC50 read?
**A.** 0.09 µM
